Calls of active or inactive are those of the source. No cut-off for these calls is given here.
Key:
RAW264.7 [1] = assay: Anti-inflammatory activity in LPS-stimulated mouse RAW264.7 cells assessed as reduction in iNOS expression by Western blot analysis; assay type: functional, cell-based; conditions: dose 2.5-10 µM
Mus musculus [2] = assay: Anti-inflammatory activity in LPS-induced BALB/c mouse model of […] assessed as inhibition of LPS-induced increase in IL-6 expression in BALF at 5 to 20 mg/kg, po preadministered with compound for 3 days followed by LPS stimulation for 6 hrs after 1 hrs compound administration on day 3 by ELISA; assay type: functional, organism-based; conditions: dose 5-20 mg/kg, time 3.0 day
Mus musculus [3] = assay: Anti-inflammatory activity in LPS-induced BALB/c mouse model of […] assessed as attenuation of lung alveolar hemorrhage at 5 to 20 mg/kg, po preadministered with compound for 3 days followed by LPS stimulation for 6 hrs after 1 hrs compound administration on day 3 by H&E staining based analysis; assay type: functional, organism-based; conditions: dose 5-20 mg/kg, time 3.0 day
RAW264.7 [4] = assay: cells; conditions: Mus musculus
Description: Anti-inflammatory activity in mouse RAW264.7 cells assessed as inhibition of LPS-induced IL-6 production preincubated with compound for 1 hrs followed by LPS stimulation and measured after 23 hrs by ELISA

[5] = target: NACHT, LRR and PYD domains-containing protein 3 (Mus musculus) (UniProt Q8R4B8); assay: Inhibition of NLRP3 inflammasome activation in LPS-stimulated mouse RAW264.7 cells assessed as decrease in caspase-1 expression at 2.5 to 10 uM by Western blot analysis; assay type: cell-based; conditions: dose 2.5-10 µM
NACHT, LRR and PYD domains-containing protein 3 (Mus musculus), sequence (Q8R4B8 whole entry, the tested form may be a part): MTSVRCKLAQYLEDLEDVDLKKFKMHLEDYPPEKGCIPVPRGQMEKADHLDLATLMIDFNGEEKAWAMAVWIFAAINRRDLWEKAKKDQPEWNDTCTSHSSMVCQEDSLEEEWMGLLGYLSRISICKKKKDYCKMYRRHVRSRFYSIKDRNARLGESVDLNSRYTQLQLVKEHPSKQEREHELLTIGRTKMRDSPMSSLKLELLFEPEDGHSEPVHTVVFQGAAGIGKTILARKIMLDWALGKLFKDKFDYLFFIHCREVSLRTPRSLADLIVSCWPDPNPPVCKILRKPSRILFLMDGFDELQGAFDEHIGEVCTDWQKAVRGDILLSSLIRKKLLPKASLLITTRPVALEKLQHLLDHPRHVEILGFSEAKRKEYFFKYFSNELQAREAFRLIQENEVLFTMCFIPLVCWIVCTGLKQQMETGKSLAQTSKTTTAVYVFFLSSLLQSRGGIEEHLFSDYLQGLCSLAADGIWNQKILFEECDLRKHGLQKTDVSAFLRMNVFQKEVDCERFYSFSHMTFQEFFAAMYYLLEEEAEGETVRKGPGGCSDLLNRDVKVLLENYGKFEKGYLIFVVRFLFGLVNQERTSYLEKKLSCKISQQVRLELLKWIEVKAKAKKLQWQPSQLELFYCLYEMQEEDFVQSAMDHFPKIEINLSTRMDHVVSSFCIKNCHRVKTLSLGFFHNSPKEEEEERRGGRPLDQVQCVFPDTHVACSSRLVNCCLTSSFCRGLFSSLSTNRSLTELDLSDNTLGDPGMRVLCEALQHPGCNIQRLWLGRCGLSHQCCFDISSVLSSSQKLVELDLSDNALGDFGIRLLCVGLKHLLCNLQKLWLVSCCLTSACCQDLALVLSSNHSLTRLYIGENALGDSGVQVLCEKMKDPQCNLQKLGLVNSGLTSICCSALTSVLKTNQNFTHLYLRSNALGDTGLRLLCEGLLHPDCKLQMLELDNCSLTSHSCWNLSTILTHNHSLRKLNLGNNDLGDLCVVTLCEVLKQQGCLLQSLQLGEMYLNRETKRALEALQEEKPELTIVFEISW

RAW264.7 [6] = assay: Inhibition of NFkappaB signaling pathway in LPS-stimulated mouse RAW264.7 cells assessed as decrease in NFkappaB protein level at 2.5 to 10 uM by Western blot analysis; assay type: cell-based; conditions: dose 2.5-10 µM
RAW264.7 [7] = assay: Cytotoxicity against mouse RAW264.7 cells assessed as reduction in cell viability at 30 uM incubated for 24 hrs by MTT assay relative to control; assay type: toxicity, cell-based; conditions: raw264.7, 24 h
Mus musculus [8] = assay: Anti-inflammatory activity in LPS-induced BALB/c mouse model of […] assessed as attenuation of inflammatory cell infiltration in lungs at 5 to 20 mg/kg, po preadministered with compound for 3 days followed by LPS stimulation for 6 hrs after 1 hrs compound administration on day 3 by H&E staining based analysis; assay type: functional, organism-based; conditions: dose 5-20 mg/kg, time 3.0 day
RAW264.7 [9] = assay: Inhibition of MAPK signaling pathway in LPS-stimulated mouse RAW264.7 cells assessed as decrease in phosphorylation of ERK at 2.5 to 10 uM by Western blot analysis; assay type: cell-based; conditions: dose 2.5-10 µM
Mus musculus [10] = assay: Anti-inflammatory activity in LPS-induced BALB/c mouse model of […] assessed as inhibition of LPS-induced increase in NO production in serum at 5 to 20 mg/kg, po preadministered with compound for 3 days followed by LPS stimulation for 6 hrs after 1 hrs compound administration on day 3 by Griess reagent based method; assay type: functional, organism-based; conditions: dose 5-20 mg/kg, time 3.0 day
RAW264.7 [11] = assay: Inhibition of NFkappaB signaling pathway in LPS-stimulated mouse RAW264.7 cells assessed as decrease in IkappaBalpha protein level at 2.5 to 10 uM by Western blot analysis; assay type: cell-based; conditions: dose 2.5-10 µM
RAW264.7 [12] = assay: cells; conditions: Mus musculus; remark: listed apart in the source
Description: Anti-inflammatory activity in mouse RAW264.7 cells assessed as inhibition of LPS-induced NO production preincubated with compound for 1 hrs followed by LPS stimulation and measured after 23 hrs by Griess reagent based method

Mus musculus [13] = assay: In vivo inhibition of NFkappaB activation in LPS-induced BALB/c mouse model of […] assessed as inhibition of NFkappaB degradation preadministered orally with compound for 3 days followed by LPS stimulation for 6 hrs after 1 hrs compound administration on day 3 by Western blot analysis; assay type: functional; conditions: dose 5-20 mg/kg, route po, time 3.0 day
Mus musculus [14] = assay: In vivo inhibition of NLRP3 inflammasome activation in LPS-induced BALB/c mouse model of […] assessed as reduction in caspase-1 expression preadministered orally with compound for 3 days followed by LPS stimulation for 6 hrs after 1 hrs compound administration on day 3 by Western blot analysis; assay type: functional; conditions: dose 5-20 mg/kg, route po, time 3.0 day
Mus musculus [15] = assay: Anti-inflammatory activity in LPS-induced BALB/c mouse model of […] assessed as inhibition of LPS-induced increase in TNF-alpha expression in serum at 5 to 20 mg/kg, po preadministered with compound for 3 days followed by LPS stimulation for 6 hrs after 1 hrs compound administration on day 3 by ELISA; assay type: functional, organism-based; conditions: dose 5-20 mg/kg, time 3.0 day
Mus musculus [16] = assay: Anti-inflammatory activity in LPS-induced BALB/c mouse model of […] assessed as inhibition of LPS-induced increase in NO production in BALF at 5 to 20 mg/kg, po preadministered with compound for 3 days followed by LPS stimulation for 6 hrs after 1 hrs compound administration on day 3 by Griess reagent based method; assay type: functional, organism-based; conditions: dose 5-20 mg/kg, time 3.0 day
Mus musculus [17] = assay: Anti-inflammatory activity in LPS-induced BALB/c mouse model of […] assessed as inhibition of LPS-induced increase in TNF-alpha expression in BALF at 5 to 20 mg/kg, po preadministered with compound for 3 days followed by LPS stimulation for 6 hrs after 1 hrs compound administration on day 3 by ELISA; assay type: functional, organism-based; conditions: dose 5-20 mg/kg, time 3.0 day
RAW264.7 [18] = assay: Anti-inflammatory activity in LPS-stimulated mouse RAW264.7 cells assessed as reduction in COX-2 expression by Western blot analysis; assay type: functional, cell-based; conditions: dose 2.5-10 µM
RAW264.7 [19] = assay: cells; conditions: Mus musculus; remark: listed apart in the source
Description: Anti-inflammatory activity in mouse RAW264.7 cells assessed as inhibition of LPS-induced TNF-alpha production preincubated with compound for 1 hrs followed by LPS stimulation and measured after 23 hrs by ELISA

Mus musculus [20] = assay: Anti-inflammatory activity in LPS-induced BALB/c mouse model of […] assessed as inhibition of iNOS expression preadministered orally with compound for 3 days followed by LPS stimulation for 6 hrs after 1 hrs compound administration on day 3 by Western blot analysis; assay type: functional, organism-based; conditions: dose 5-20 mg/kg, route po, time 3.0 day
[21] = Cytotoxicity against mouse RAW264.7 cells assessed as inhibition of cell growth incubated for 24 hrs by MTT assay; assay type: toxicity, cell-based
Mus musculus [22] = assay: In vivo inhibition of MAPK activation in LPS-induced BALB/c mouse model of […] assessed as inhibition of ERK phosphorylation preadministered orally with compound for 3 days followed by LPS stimulation for 6 hrs after 1 hrs compound administration on day 3 by Western blot analysis; assay type: functional; conditions: dose 5-20 mg/kg, route po, time 3.0 day
Mus musculus [23] = assay: In vivo inhibition of NLRP3 inflammasome activation in LPS-induced BALB/c mouse model of […] assessed as reduction in IL-1beta expression preadministered orally with compound for 3 days followed by LPS stimulation for 6 hrs after 1 hrs compound administration on day 3 by Western blot analysis; assay type: functional; conditions: dose 5-20 mg/kg, route po, time 3.0 day
Mus musculus [24] = assay: In vivo inhibition of MAPK activation in LPS-induced BALB/c mouse model of […] assessed as inhibition of p38 MAPK phosphorylation preadministered orally with compound for 3 days followed by LPS stimulation for 6 hrs after 1 hrs compound administration on day 3 by Western blot analysis; assay type: functional; conditions: dose 5-20 mg/kg, route po, time 3.0 day
RAW264.7 [25] = assay: Inhibition of MAPK signaling pathway in LPS-stimulated mouse RAW264.7 cells assessed as decrease in phosphorylation of p38 MAPK at 2.5 to 10 uM by Western blot analysis; assay type: cell-based; conditions: dose 2.5-10 µM
Mus musculus [26] = assay: Anti-inflammatory activity in LPS-induced BALB/c mouse model of […] assessed as inhibition of LPS-induced increase in lung W/D ratio at 5 to 20 mg/kg, po preadministered with compound for 3 days followed by LPS stimulation for 6 hrs after 1 hrs compound administration on day 3; assay type: functional, organism-based; conditions: dose 5-20 mg/kg, time 3.0 day
RAW264.7 [27] = assay: Anti-inflammatory activity in LPS-stimulated mouse RAW264.7 cells assessed as inhibition of ROS production at 2.5 to 10 uM preincubated with compound for 1 hrs followed by LPS stimulation and measured after 23 hrs by DCFH-DA staining based flow cytometric analysis; assay type: functional, cell-based; conditions: dose 2.5-10 µM, time 24.0 hrs
RAW264.7 [28] = assay: Inhibition of MAPK signaling pathway in LPS-stimulated mouse RAW264.7 cells assessed as decrease in phosphorylation of JNK at 2.5 to 10 uM by Western blot analysis; assay type: cell-based; conditions: dose 2.5-10 µM

With CC(=O)O[C@H]1C[C@@]2(C)[C@@H](C[C@@H](O)[C@H]3[C@@]4(C)CC[C@@H](O)[C@@H](C)[C@@H]4CC[C@@]32C)/C1=C(\CCC=C(C)C)C(=O)OCc1cn(-c2ccccc2)nn1 the Activity (RAW264.7 [1]) was “Dose-Dependent Effect”, the Activity (Mus musculus [2]) was “Active” and the Activity (Mus musculus [3]) was “Active”. The IC50 (RAW264.7 [4]) was 1.85 µM, the inhibition [5] was “Active” and the inhibition (RAW264.7 [6]) was “Active”. The Activity (RAW264.7 [7]) was 102.79%, the Activity (Mus musculus [8]) was “Active” and the inhibition (RAW264.7 [9]) was “Active”. The Activity (Mus musculus [10]) was “Active”, the inhibition (RAW264.7 [11]) was “Active” and the IC50 (RAW264.7 [12]) was 3.26 µM. The inhibition (Mus musculus [13]) was “Dose-Dependent Effect”, the inhibition (Mus musculus [14]) was “Dose-Dependent Effect” and the Activity (Mus musculus [15]) was “Active”. For the same molecule, the Activity (Mus musculus [16]) was “Active”, the Activity (Mus musculus [17]) was “Active” and the Activity (RAW264.7 [18]) was “Dose-Dependent Effect”. For the same molecule, the IC50 (RAW264.7 [19]) was 3.88 µM, the Activity (Mus musculus [20]) was “Dose-Dependent Effect” and the IC50 at 24 h [21] was 94.3 µM. The inhibition (Mus musculus [22]) was “Dose-Dependent Effect”, the inhibition (Mus musculus [23]) was “Dose-Dependent Effect” and the inhibition (Mus musculus [24]) was “Dose-Dependent Effect”. For the same molecule, the inhibition (RAW264.7 [25]) was “Active”, the Activity (Mus musculus [26]) was “Active” and the Activity (RAW264.7 [27]) was “Active”. For the same molecule, the inhibition (RAW264.7 [28]) was “Active”.
